Experimental data reported in patent US6737383B1, “Herbicidal oxadiazolidines” (priority 1999, dated 2004).

Key:
[1] = system: purple nutsedge; assay: Test B pre/postemergence purple nutsedge; format: in vivo, Cyperus rotundus
Method in brief: (§1)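 Response is a visual 0-to-10 score relative to untreated plants, where 0 means no effect and 10 means complete control, taken twelve to sixteen days after application. Treatments went onto soil at planting and onto foliage of 1- to 4-leaf plants, using a surfactant-containing non-phytotoxic solvent.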

[2] = system: bamyardgrass; assay: Test B flood test barnyardgrass; format: in vivo, Echinochloa crus-galli
Method in brief: (§2)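 Each value is a visual injury score relative to controls, with 10 meaning complete control and 0 no effect. Evaluation took place twelve to sixteen days after the 2-leaf-stage plants were treated and kept in the greenhouse.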

[3] = system: rape; assay: Test B pre/postemergence rape; format: in vivo, Brassica napus
Method in brief: as §1

[4] = system: soybean; assay: Test B pre/postemergence soybean; format: in vivo, Glycine max
Method in brief: as §1

[5] = system: wild oat; assay: Test B pre/postemergence wild oat; format: in vivo, Avena fatua
Method in brief: as §1

[6] = system: smallflower flatsedge; assay: Test B flood test smallflower flatsedge; format: in vivo, Cyperus difformis
Method in brief: as §2

[7] = system: bedstraw; assay: Test B pre/postemergence bedstraw; format: in vivo, Galium aparine
Method in brief: as §1

[8] = system: velvetleaf; assay: Test B pre/postemergence velvetleaf; format: in vivo, Abutilon theophrasti
Method in brief: as §1

[9] = system: corn; assay: Test B pre/postemergence corn; format: in vivo, Zea mays
Method in brief: as §1

[10] = system: sugar beet; assay: Test B pre/postemergence sugar beet; format: in vivo, Beta vulgaris
Method in brief: as §1

[11] = system: surinam grass; assay: Test B pre/postemergence surinam grass; format: in vivo, Brachiaria decumbens
Method in brief: as §1

[12] = system: crabgrass; assay: Test B pre/postemergence crabgrass; format: in vivo, Digitaria sanguinalis
Method in brief: as §1

[13] = system: wheat; assay: Test B pre/postemergence wheat; format: in vivo, Triticum aestivum
Method in brief: as §1

[14] = system: blackgrass; assay: Test B pre/postemergence blackgrass; format: in vivo, Alopecurus myosuroides
Method in brief: as §1

[15] = system: cocklebur; assay: Test B pre/postemergence cocklebur; format: in vivo, Xanthium strumarium
Method in brief: as §1

[16] = system: pigweed; assay: Test B pre/postemergence pigweed; format: in vivo, Amaranthus retroflexus
Method in brief: as §1

[17] = Preemergence, Rate 62 g/ha, scale of 0 to 10 where 0 is no effect and 10 is complete control
[18] = Preemergence, Rate 125 g/ha, 0 is no effect, 10 is complete control
[19] = Preemergence, Rate 250 g/ha, scale 0 to 10, 0 is no effect, 10 is complete control
[20] = Preemergence, Rate 500 g/ha, scale of 0 to 10 where 0 is no effect and 10 is complete control
[21] = Rate 62 g/ha, Postemergence, scale of 0 to 10 where 0 is no effect and 10 is complete control
[22] = Rate 125 g/ha, Postemergence, scale 0 to 10
[23] = Rate 500 g/ha, Postemergence, scale 0 to 10
[24] = Rate 62 g/ha, headed Pre-emergence (flood test species), scale 0 to 10 (0 no effect, 10 complete control)
[25] = Rate 125 g/ha, Pre-emergence, flood test species, scale 0 to 10 where 0 is no effect and 10 is complete control
[26] = Rate 250 g/ha, Pre-emergence, flood-test species, scale 0 to 10, 0 is no effect, 10 is complete control
[27] = Rate 500 g/ha, Pre-emergence, flood test species, scale 0 to 10 (0 no effect, 10 complete control)

CC(C)N(C(=O)n1oc(=O)n(Cc2ccco2)c1=O)c1ccc(F)cc1 [Compound 207]
Nutsedge plant response rating [1, 17]: 0
Nutsedge plant response rating (0 to 10 scale) [1, 18]: 0
Nutsedge plant response rating [1, 19]: 0
Plant response rating, Nutsedge [1, 20]: 0
Nutsedge plant response rating [1, 21]: 0
Nutsedge plant response rating [1, 22]: 0
Plant response rating (0 to 10; 0 is no effect, 10 is complete control), Nutsedge ([1]; Rate 250 g/ha, Postemergence): 0
Nutsedge plant response rating [1, 23]: 0
Barnyardgrass plant response rating [2, 24]: 0
Barnyardgrass plant response rating [2, 25]: 0
Barnyardgrass plant response rating [2, 26]: 2
Barnyardgrass plant response rating [2, 27]: 7
Rape plant response rating [3, 17]: 0
Rape plant response rating (0 to 10 scale) [3, 18]: 0
Rape plant response rating [3, 19]: 0
Plant response rating, Rape [3, 20]: 2
Rape plant response rating [3, 21]: 0
Rape plant response rating [3, 22]: 0
Plant response rating (0 to 10; 0 is no effect, 10 is complete control), Rape ([3]; Rate 250 g/ha, Postemergence): 0
Rape plant response rating [3, 23]: 2
Soybean plant response rating [4, 17]: 0
Soybean plant response rating (0 to 10 scale) [4, 18]: 0
Soybean plant response rating [4, 19]: 0
Plant response rating, Soybean [4, 20]: 0
Soybean plant response rating [4, 21]: 1
Soybean plant response rating [4, 22]: 2
Plant response rating (0 to 10; 0 is no effect, 10 is complete control), Soybean ([4]; Rate 250 g/ha, Postemergence): 2
Soybean plant response rating [4, 23]: 5
Wild oats plant response rating [5, 17]: 0
Wild oats plant response rating [5, 19]: 0
Plant response rating, Wild oats [5, 20]: 0
Wild oats plant response rating [5, 21]: 0
Wild oats plant response rating [5, 22]: 0
Plant response rating (0 to 10; 0 is no effect, 10 is complete control), Wild oats ([5]; Rate 250 g/ha, Postemergence): 0
S. Flatsedge plant response rating [6, 24]: 0
S. Flatsedge plant response rating [6, 25]: 0
S. Flatsedge plant response rating [6, 26]: 0
S. Flatsedge plant response rating [6, 27]: 0
Bedstraw plant response rating [7, 17]: 0
Bedstraw plant response rating (0 to 10 scale) [7, 18]: 0
Bedstraw plant response rating [7, 19]: 0
Plant response rating, Bedstraw [7, 20]: 0
Bedstraw plant response rating [7, 21]: 0
Bedstraw plant response rating [7, 22]: 0
Plant response rating (0 to 10; 0 is no effect, 10 is complete control), Bedstraw ([7]; Rate 250 g/ha, Postemergence): 5
Bedstraw plant response rating [7, 23]: 5
Velvetleaf plant response rating [8, 17]: 0
Velvetleaf plant response rating [8, 19]: 0
Plant response rating, Velvetleaf [8, 20]: 5
Velvetleaf plant response rating [8, 21]: 0
Velvetleaf plant response rating [8, 22]: 1
Plant response rating (0 to 10; 0 is no effect, 10 is complete control), Velvetleaf ([8]; Rate 250 g/ha, Postemergence): 1
Corn plant response rating [9, 17]: 0
Corn plant response rating (0 to 10 scale) [9, 18]: 0
Corn plant response rating [9, 19]: 0
Plant response rating, Corn [9, 20]: 0
Corn plant response rating [9, 21]: 0
Corn plant response rating [9, 22]: 0
Plant response rating (0 to 10; 0 is no effect, 10 is complete control), Corn ([9]; Rate 250 g/ha, Postemergence): 0
Corn plant response rating [9, 23]: 0
Sugarbeets plant response rating [10, 17]: 0
Sugarbeets plant response rating (0 to 10 scale) [10, 18]: 0
Sugarbeets plant response rating [10, 19]: 0
Plant response rating, Sugarbeets [10, 20]: 0
Sugarbeets plant response rating [10, 21]: 0
Sugarbeets plant response rating [10, 22]: 0
Plant response rating (0 to 10; 0 is no effect, 10 is complete control), Sugarbeets ([10]; Rate 250 g/ha, Postemergence): 0
Sugarbeets plant response rating [10, 23]: 2
B. signalgrass plant response rating [11, 17]: 0
B. signalgrass plant response rating (0 to 10 scale) [11, 18]: 0
B. signalgrass plant response rating [11, 19]: 0
Plant response rating, B. signalgrass [11, 20]: 0
B. signalgrass plant response rating [11, 21]: 0
B. signalgrass plant response rating ([11]; Rate 125 g/ha, Postemergence, scale 0 (no effect) to 10 (complete control)): 0
Plant response rating, B. signalgrass ([11]; Rate 250 g/ha, Postemergence, scale 0 to 10, 0 is no effect, 10 is complete control): 0
B. signalgrass plant response rating ([11]; Rate 500 g/ha, Postemergence, scale 0 to 10, 0 no effect, 10 complete control): 0
Crabgrass plant response rating [12, 17]: 0
Crabgrass plant response rating (0 to 10 scale) [12, 18]: 0
Crabgrass plant response rating [12, 19]: 3
Plant response rating, Crabgrass [12, 20]: 4
Crabgrass plant response rating [12, 21]: 0
Crabgrass plant response rating [12, 22]: 0
Plant response rating (0 to 10; 0 is no effect, 10 is complete control), Crabgrass ([12]; Rate 250 g/ha, Postemergence): 2
Crabgrass plant response rating [12, 23]: 3
Wheat plant response rating [13, 17]: 0
Wheat plant response rating [13, 19]: 0
Plant response rating, Wheat [13, 20]: 0
Wheat plant response rating [13, 21]: 0
Wheat plant response rating [13, 22]: 0
Plant response rating (0 to 10; 0 is no effect, 10 is complete control), Wheat ([13]; Rate 250 g/ha, Postemergence): 0
Blackgrass plant response rating [14, 17]: 0
Blackgrass plant response rating (0 to 10 scale) [14, 18]: 0
Blackgrass plant response rating [14, 19]: 4
Plant response rating, Blackgrass [14, 20]: 7
Blackgrass plant response rating [14, 21]: 0
Blackgrass plant response rating [14, 22]: 2
Plant response rating (0 to 10; 0 is no effect, 10 is complete control), Blackgrass ([14]; Rate 250 g/ha, Postemergence): 2
Blackgrass plant response rating [14, 23]: 4
Cocklebur plant response rating [15, 17]: 0
Cocklebur plant response rating (0 to 10 scale) [15, 18]: 0
Cocklebur plant response rating [15, 19]: 0
Plant response rating, Cocklebur [15, 20]: 0
Cocklebur plant response rating [15, 21]: 0
Cocklebur plant response rating [15, 22]: 0
Plant response rating (0 to 10; 0 is no effect, 10 is complete control), Cocklebur ([15]; Rate 250 g/ha, Postemergence): 0
Cocklebur plant response rating [15, 23]: 3
Redroot pigweed plant response rating [16, 17]: 0
Redroot pigweed plant response rating (0 to 10 scale) [16, 18]: 0
Redroot pigweed plant response rating [16, 19]: 2
Plant response rating, Redroot pigweed [16, 20]: 8
Redroot pigweed plant response rating [16, 21]: 0
Redroot pigweed plant response rating [16, 22]: 0
Plant response rating (0 to 10; 0 is no effect, 10 is complete control), Redroot pigweed ([16]; Rate 250 g/ha, Postemergence): 0
Redroot pigweed plant response rating [16, 23]: 0
